Tested on: Bmi-1 protein
Test: Sandwich ELISA Assay (Bmi-1 protein level in HT-1080 cells after compound treatment)
Assay type: cell-based
Settings: Table 1, Bmi-1 sandwich ELISA, read-out: ELISA EC50 value for Bmi-1 protein
Procedure: Cell Seeding and Compound Treatment (Day 1):
HT-1080 cells were seeded at 8000 cells/well (50 μL) in 96-well tissue culture plates. After the cells became adherent (3-4 hours), 2× diluted stocks of test compounds in 50 μL DMEM containing 1% DMSO (final DMSO concentration was 0.5%) were added and the plates were incubated at 37° C. under 5% CO2 for 40-48 hours.
ELISA Plate First Antibody Preparation (Day 2):
The First Antibody (Millipore Mouse, monoclonal to mouse Bmi-1, clone F6, catalog #05-637) diluted to […] in PBS was added (100 μL) to each well of a Nunc MaxiSorp 96-well ELISA plate. The plate was covered with a plate seal and allowed to stand overnight.
Cell Lysate Preparation (Day 3):
Fresh Lysis buffer (1×) was prepared on the day of the assay as follows: 1 mM EDTA, 150 mM NaCl, 0.5% Triton-X 100, 10 mM NaF, 20 mM B-Glycerophosphate, 1 mM DTT (in PBS, pH 7.2-7.4) and HALT protease inhibitor cocktail (lx) (Pierce #78410).
A standard curve was prepared at the following Bmi-1 concentrations: 8000, 4000, 2000, 1000, 500, 250, 125 and 0 pg/mL. The Bmi-1 Recombinant Protein Standard (Novus Biologicals PCGF4 Recombinant Protein (P01), catalog # H00000648-P01) used to prepare the standard curve was stored at −80° C. On first thaw, the Recombinant Protein Standard was diluted to 10 μg/L in Blocking Buffer (1% BSA in PBS; BSA: Fisher Scientific Catalog #1600-100). Aliquots were taken and refrozen at −80° C. The aliquots may be kept at 4° C. and reused after first thaw, but only within 1-2 weeks. The Recombinant Protein Standard contains a GST-fusion tag that appears at approximately 70 Kda on Western Blot.
The prepared ELISA plate was washed 3× with Wash Buffer (0.05% Tween-20 in PBS). The final wash was removed from the plate and the plate was blotted dry. Blocking Buffer (300 μL) (1% BSA in PBS) was added to each well. The plate was covered with a plate seal and incubated at room temperature for 1 hour. The blocked plate was washed 3× with Wash Buffer, then the final wash was removed and the plate was blotted dry. The previously prepared samples and standards were added ([…]) and the plate was covered with a plate seal and incubated at 4° C. overnight.
The prepared ELISA plate was removed from incubation and allowed to stand at room temperature for 30 minutes, then washed and blotted dry. The Second Antibody (Cell Signaling Rabbit anti-Bmi-1, Cat #2830) diluted to 1:600 in Blocking Buffer was added (100 μL) to each well, except as needed for background control wells. The plate was covered with a plate seal and incubated for 1.5 hrs at room temperature.
The ELISA plate was washed and blotted dry as previously described. The Third Antibody (Cell Signaling HRP conjugated anti-rabbit IgG (CellSignaling, Cat #:7074) diluted to 1:300 in Blocking Buffer was added (100 μL) to each well, except as needed for background control wells. The plate was incubated for 1 hr at room temperature.
The plate was washed and blotted dry, then a previously prepared TMB substrate (TMB substrate kit, Pierce catalog #34021) (prepared by mixing kit reagents 1:1) (100 μL) was added per well. The plate was incubated for 20-30 minutes at room temperature in the dark, then Stop Solution (2 M sulfuric acid in water) (50 μL) was added per well. The plates were read at OD450 (experimental) and OD570 (reference).

Fc1cc2nc(C3CC3)n(-c3cncc(Nc4ccc(C(F)(F)F)cc4)n3)c2cc1F [compound 182, 6-(2-cyclopropyl-5,6-difluoro-1H-benzimidazol-1-yl)-N-[4-(trifluoromethyl)phenyl]pyrazin-2-amine]
EC50: 10 to 100 nM

Cc1nc(C)n(-c2cncc(Nc3ccc(C(F)(F)F)cc3)n2)c1C [compound 342, N-[4-(trifluoromethyl)phenyl]-6-(2,4,5-trimethyl-1H-imidazol-1-yl)pyrazin-2-amine]
EC50: 10 to 100 nM

Cc1nc2ccccc2n1-c1c[n+]([O-])cc(Nc2ccc(C(F)(F)F)cc2)n1 [compound 525, 6-(2-methyl-1H-benzimidazol-1-yl)-N-[4-(trifluoromethyl)phenyl]pyrazin-2-amine 4-oxide]
EC50: 10 to 100 nM

CCc1nn2ccccc2c1-c1cncc(Nc2ccccc2)n1 [compound 631, 6-(2-ethylpyrazolo[1,5-a]pyridin-3-yl)-N-phenylpyrazin-2-amine]
EC50: 100 to 3000 nM

COC(=O)c1ccc(Nc2cncc(-n3c(C)nc4ccccc43)n2)cc1 [compound 133, methyl 4-{[6-(2-methyl-1H-benzimidazol-1-yl)pyrazin-2-yl]amino}benzoate]
EC50: 10 to 100 nM

COc1ccc(Nc2nc(-c3c(C(F)(F)F)nc4ccccn34)ccc2C#N)cc1 [compound 41, 2-[(4-methoxyphenyl)amino]-6-[2-(trifluoromethyl)imidazo[1,2-a]pyridin-3-yl]pyridine-3-carbonitrile]
EC50: 100 to 3000 nM

Cc1nc2ccccc2n1-c1cncc(Nc2ccc(C(F)(F)F)c(CO)c2)n1 [compound 519]
EC50: 10 to 100 nM

Cc1nc2ccccc2n1-c1cncc(Nc2ccc(C(F)F)cc2)n1 [compound 507, N-[4-(difluoromethyl)phenyl]-6-(2-methyl-1H-benzimidazol-1-yl)pyrazin-2-amine]
EC50: 10 to 100 nM

Cc1nc2cc(F)c(F)cc2n1-c1cc(C#N)cc(Nc2ccc(C(F)(F)F)c(F)c2)n1 [compound 359, 2-(5,6-difluoro-2-methyl-1H-benzimidazol-1-yl)-6-{[3-fluoro-4-(trifluoromethyl)phenyl]amino}pyridine-4-carbonitrile]
EC50: 100 to 3000 nM

CCc1nn2ccccc2c1-c1cncc(Nc2ccc(C(F)(F)F)cc2)n1 [compound 520, 6-(2-ethylpyrazolo[1,5-a]pyridin-3-yl)-N-[4-(trifluoromethyl)phenyl]pyrazin-2-amine]
EC50: 1 to 10 nM

Fc1ccc2nc(C(F)(F)F)c(-c3cncc(Nc4ccc(Cl)cc4)n3)n2c1 [compound 670, N-(4-chlorophenyl)-6-[6-fluoro-2-(trifluoromethyl)imidazo[1,2-a]pyridin-3-yl]pyrazin-2-amine]
EC50: 100 to 3000 nM

Cc1nc2ccccc2n1-c1cncc(Nc2ccc(C(N)=O)cc2)n1 [compound 185, 4-{[6-(2-methyl-1H-benzimidazol-1-yl)pyrazin-2-yl]amino}benzamide]
EC50: 100 to 3000 nM

C=Cc1ccc(Nc2cncc(-n3c(C)nc4ccccc43)n2)cc1 [compound 666, N-(4-ethenylphenyl)-6-(2-methyl-1H-benzimidazol-1-yl)pyrazin-2-amine]
EC50: 100 to 3000 nM

FC(F)(F)c1ccc(Nc2cncc(-n3c(C(F)(F)F)nc4ncccc43)n2)cc1 [compound 123, 6-[2-(trifluoromethyl)-1H-imidazo[4,5-b]pyridin-1-yl]-N-[4-(trifluoromethyl)phenyl]pyrazin-2-amine]
EC50: 100 to 3000 nM

CCc1nn2ccccc2c1-c1cncc(Nc2ccc(OC(F)(F)F)cc2)n1 [compound 523, 6-(2-ethylpyrazolo[1,5-a]pyridin-3-yl)-N-[4-(trifluoromethoxy)phenyl]pyrazin-2-amine]
EC50: 10 to 100 nM

Oc1ccc2nc(C(F)(F)F)c(-c3cccc(Nc4ccc(C(F)(F)F)cc4)n3)n2c1 [compound 111, 2-(trifluoromethyl)-3-(6-{[4-(trifluoromethyl)phenyl]amino}pyridin-2-yl)imidazo[1,2-a]pyridin-6-ol]
EC50: 10 to 100 nM

Cc1nc2cc(F)c(F)cc2n1-c1cncc(Nc2ccc(OC(F)F)cc2)n1 [compound 199, N-[4-(difluoromethoxy)phenyl]-6-(5,6-difluoro-2-methyl-1H-benzimidazol-1-yl)pyrazin-2-amine]
EC50: 1 to 10 nM

Cc1nc2ncc(Cl)cc2n1-c1cncc(Nc2ccc(OC(F)F)c(F)c2)n1 [compound 541, 6-(6-chloro-2-methyl-1H-imidazo[4,5-b]pyridin-1-yl)-N-[4-(difluoromethoxy)-3-fluorophenyl]pyrazin-2-amine]
EC50: 1 to 10 nM

Cc1nc2ncccc2n1-c1cncc(Nc2ccc(C(F)(F)F)cc2)n1 [compound 82, 6-(2-methyl-1H-imidazo[4,5-b]pyridin-1-yl)-N-[4-(trifluoromethyl)phenyl]pyrazin-2-amine]
EC50: 10 to 100 nM

FC(F)(F)c1nc2ccccn2c1-c1cncc(Nc2ccc(Cl)cc2)n1 [Cpd 10, N-(4-chlorophenyl)-6-[2-(trifluoromethyl)imidazo[1,2-a]pyridin-3-yl]pyrazin-2-amine]
EC50: 1 to 10 nM

Cc1nc2ccccc2n1-c1cncc(Nc2ccc(C(F)(F)F)c(Cl)c2)n1 [compound 390, N-[3-chloro-4-(trifluoromethyl)phenyl]-6-(2-methyl-1H-benzimidazol-1-yl)pyrazin-2-amine]
EC50: 10 to 100 nM

CSc1nc2ccccn2c1-c1cncc(Nc2ccc(C(F)(F)F)cc2)n1 [compound 191, 6-[2-(methylsulfanyl)imidazo[1,2-a]pyridin-3-yl]-N-[4-(trifluoromethyl)phenyl]pyrazin-2-amine]
EC50: 1 to 10 nM

COc1ccc2nc(C)c(-c3cc(C#N)cc(Nc4ccc(C(F)(F)F)cc4)n3)n2c1 [compound 379, 2-(6-methoxy-2-methylimidazo[1,2-a]pyridin-3-yl)-6-{[4-(trifluoromethyl)phenyl]amino}pyridine-4-carbonitrile]
EC50: 10 to 100 nM

Cc1cccc2c1nc(C)n2-c1cncc(Nc2ccc(C(F)(F)F)cc2)n1 [compound 283, 6-(2,4-dimethyl-1H-benzimidazol-1-yl)-N-[4-(trifluoromethyl)phenyl]pyrazin-2-amine]
EC50: 10 to 100 nM

Cc1nc2cc(F)c(F)cc2n1-c1cc(N)cc(Nc2ccc(OC(F)(F)F)cc2)n1 [compound 652, 6-(5,6-difluoro-2-methyl-1H-benzimidazol-1-yl)-N^2-[4-(trifluoromethoxy)phenyl]pyridine-2,4-diamine]
EC50: 10 to 100 nM

FC(F)(F)c1ccc(Nc2cncc(-c3c(C(F)(F)F)nc4ccccn34)n2)cc1 [Cpd 6, 6-[2-(trifluoromethyl)imidazo[1,2-a]pyridin-3-yl]-N-[4-(trifluoromethyl)phenyl]pyrazin-2-amine]
EC50: 1 to 10 nM

Cc1nc2ccc(F)cc2n1-c1c[n+]([O-])cc(Nc2ccc(C(F)(F)F)cc2)n1 [compound 532, 6-(6-fluoro-2-methyl-1H-benzimidazol-1-yl)-N-[4-(trifluoromethyl)phenyl]pyrazin-2-amine 4-oxide]
EC50: 10 to 100 nM

CSc1cc(Nc2ccc(C(F)(F)F)cc2)nc(-c2c(C(F)(F)F)nc3ccccn23)c1 [compound 173, 4-(methylsulfanyl)-6-[2-(trifluoromethyl)imidazo[1,2-a]pyridin-3-yl]-N-[4-(trifluoromethyl)phenyl]pyridin-2-amine]
EC50: 100 to 3000 nM

Cc1nc2cc(F)c(F)cc2n1-c1cccc(Nc2ccc(Cl)cc2)n1 [compound 615, N-(4-chlorophenyl)-6-(5,6-difluoro-2-methyl-1H-benzimidazol-1-yl)pyridin-2-amine]
EC50: 100 to 3000 nM

COc1ccc(Nc2cc(C#N)cc(-n3c(C)nc4cc(F)c(F)cc43)n2)cc1 [compound 583, 2-(5,6-difluoro-2-methyl-1H-benzimidazol-1-yl)-6-[(4-methoxyphenyl)amino]pyridine-4-carbonitrile]
EC50: 1 to 10 nM

FC(F)Oc1ccc(Nc2cncc(-c3cnc4ccccn34)n2)cc1 [compound 477, N-[4-(difluoromethoxy)phenyl]-6-(imidazo[1,2-a]pyridin-3-yl)pyrazin-2-amine]
EC50: 100 to 3000 nM

Source: patent US10584115B2, “Substituted pyridine and pyrazine BMI-1 inhibitors” (PTC Therapeutics, Inc., priority 2013, dated 2020)
